Measured values taken from patent US20040191849A1, “Method for identifying fungicides” (priority 2002, published 2004).

Experiments:
[1] = test system: ribose-phosphate isomerase; conditions: Jung et al., Arch. Biochem. Biophys. 373 (2000) 409-417; cited from earlier work
Erysiphe graminis = test: Induction of resistance to Erysiphe graminis in a plant; type: in vivo; conditions: Hordeum vulgaris; inoculated with Erysiphe graminis 4 days after treatment; 100 = maximum activity, 0 = no activity
From the text: In the case of Erysiphe graminis, the induction of resistance to this fungus, in a plant, was furthermore tested by way of example. To this end, the plant is inoculated with the pathogen 4 days after treatment of the plant with the test substance. The activity of the substance is given as efficacy in %.

RPI = test: Spectrophotometric RPI assay, increase in absorption at 290 nm (KM determination); conditions: read-out: KM value; substrate of RPI; Lineweaver-Burk plot; 400 ng of RPI; without coupled enzymes
Method: The measurement was carried out with 400 ng of RPI.
The reaction volume amounted to 700 μl.

Question: Which “ribose-phosphate isomerase inhibitor strength” value [1] does the source give for phosphate here?
Answer: weak

Question: For `COc1ccc(S(=O)(=O)N(C)C)cc1CCC(C)NCC1CC2(CCCC2)Oc2ccccc21.O=C(O)/C=C/C(=O)O` (stereo not drawn) [Example 2], which “resistance induction (efficacy)” value (Erysiphe graminis) is on record?
Answer: 50%

Question: For `O=C[C@H](O)[C@H](O)[C@H](O)COP(=O)(O)O` [D-ribose-5-phosphate], which Km (RPI) is on record?
Answer: 6.3 mM
